From ChEMBL document CHEMBL2439949, “Synthesis and structure-activity relationships of phenyl-substituted coumarins with anti-tubercular activity that target FadD32” (Bioorg Med Chem Lett, 2013) come the findings set out here.

For orientation: IC90 means the point of the concentration-response curve where the effect stands at 90%.

The test system of assay [1] is Mycobacterium tuberculosis. The assay can be described thus: Antimycobacterial activity against Mycobacterium tuberculosis expressing FadD32 E120G mutant after 7 days. The assay is classed as functional.
The test system of assay [2] is Mycobacterium tuberculosis. The assay can be described thus: Antimycobacterial activity against Mycobacterium tuberculosis expressing FadD32 E120G mutant at 125 uM after 7 days. The assay is classed as functional, organism-based.

The source made the active and inactive calls. No cut-off for these calls is given here.

In the case of `Cc1cc2oc(=O)cc(-c3ccccc3)c2c(C)c1-c1ccc(CNC2CCCCC2)cc1`, the IC90 in assay [1] came to 32 µM. Further, the outcome in assay [2] was inactive.
As for `Cc1cc2oc(=O)cc(-c3ccccc3)c2c(C)c1-c1ccc(CN2CCOCC2)cc1`, the outcome in assay [2] was inactive.
Still for that read-out and setting: next, `CC(=O)Nc1cccc(-c2cc(=O)oc3cc(C)c(-c4ccc(CN5CCOCC5)cc4)c(C)c23)c1`: “inactive”.
As to `Cc1cc2oc(=O)cc(-c3cccc([N+](=O)[O-])c3)c2c(C)c1-c1ccc(CN2CCOCC2)cc1`, the outcome in assay [2] was inactive.
Take `Cc1cc2oc(=O)cc(-c3ccccc3)c2c(C)c1-c1ccc(CO)cc1`: the result in assay [2] was inactive.
Consider `Cc1cc2oc(=O)cc(-c3ccccc3)c2c(C)c1-c1ccccc1Cl`, for which the result in assay [2] was inactive.
The same measure, in the same setting: next, `Cc1cc(CO)ccc1-c1c(C)cc2oc(=O)cc(-c3ccccc3)c2c1C`: “inactive”; `Cc1cc2oc(=O)cc(-c3ccc(N)cc3)c2c(C)c1-c1ccc(CN2CCOCC2)cc1`: “inactive”.
The same measure, in the same setting: next, `Cc1cc2oc(=O)cc(-c3ccccc3)c2c(C)c1-c1ccncc1`: “inactive”; `CNC(=O)c1ccc(-c2c(C)cc3oc(=O)cc(-c4ccccc4)c3c2C)cc1`: “inactive”; `Cc1cc2oc(=O)cc(-c3cccnc3)c2c(C)c1-c1ccc(CN2CCOCC2)cc1`: “inactive”.
Still for that read-out and setting: next, `Cc1cc2oc(=O)cc(-c3ccccc3)c2c(C)c1-c1ccc(CN2CCN(C)CC2)cc1`: “inactive”; `Cc1cc2oc(=O)cc(-c3ccccc3)c2c(C)c1-c1ccc(CN2CCCCC2)cc1`: “inactive”; `Cc1cc2oc(=O)cc(-c3ccccc3)c2c(C)c1-c1ccc(C(C)O)cc1` (stereo not given): “inactive”.
